In patent US10633399B2, “Functionalized aminobenzoboroxoles” (Channel Therapeutics, Inc., priority 2015, dated 2020):
pIC50: −log10 of the molar value.

How the values were obtained:
[1] = Cell viability assay (MTT), MIAPaCa-2; conditions: human, MIAPaCa-2 pancreatic cancer cells
Method: (§1) After synthesizing the functionalized aminobenzoboroxoles, these molecules were evaluated for their general cytotoxicity against breast cancer cell lines (MDA-MB-231) and pancreatic cancer cell lines (MIAPaCa-2).
(§2) Human pancreatic cancer MIAPaCa-2 cells were purchased from ATCC and were maintained in D-MEM supplemented with 10% FBS, 2.5% horse serum, and 1% Penicillin Streptomycin in a humidified atmosphere of 5% CO2 at 37° C. Human breast cancer MDA-MB-231 cells were purchased from ATCC and were maintained in D-MEM supplemented with 10% FBS and 1% Penicillin Streptomycin in a humidified atmosphere of 5% CO2 at 37° C. […] DMSO was added as a negative control. To determine the cell viability, MTT (3-(4,5-dimethylthiazolyl-2)-2,5-diphenyltetrazolium bromide) was dissolved in PBS solution (5 mg/mL) and 10 μL was added to each well and incubated. After 4 hours, 100 μL of SDS (sodium dodecyl sulfate) solution (1 g in 10 mL of 0.01 N HCl) was added to solubilize formazan precipitate and incubated for an additional 4 hours. The absorbance of each well was then measured using a microplate reader at 570 nm. The absorbance of control wells was defined as 100% viability and all of the tested compounds were expressed as percentage relative to the control.

[2] = Cell viability assay (MTT), MDA-MB-231; conditions: human, MDA-MB-231 breast cancer cells
Method: as §1, §2

[3] = tested on: Human pancreatic cancer MIAPaCa-2 cells; experiment: Cell viability assay (MTT), MIAPaCa-2; conditions: for activity against MIAPaCa-2 cell lines: 12.5 μM concentration; for pIC50: Homo sapiens, MIA PaCa-2
Method: as §1, §2

[4] = tested on: Human breast cancer MDA-MB-231 cells; experiment: Cell viability assay (MTT), MDA-MB-231; conditions: Homo sapiens, MDA-MB-231
Method: as §1, §2

| SMILES | melting point [°C] | viability at 72 h, 12.5 µM [1] [%] | viability at 72 h, 50 µM [1] [%] | viability at 72 h, 12.5 µM [2] [%] | viability at 72 h, 50 µM [2] [%] | activity against MIAPaCa-2 cell lines [3] | pIC50 [3] | pIC50 [4] |
| --- | --- | --- | --- | --- | --- | --- | --- | --- |
| OB1OCc2ccc(NCc3ccc(Cl)c(Cl)c3)cc21 [Compound 6] | 128 to 130 | 95.3 | 62.6 | 69.2 | 68.7 |  |  |  |
| O=C(NC1CCCCC1)N(Cc1ccccc1)c1ccc2c(c1)B(O)OC2 [Compound 25] | 125 to 127 | 64.8 | 39.4 | 80.9 | 128 |  |  |  |
| O=NN(Cc1ccccc1)c1ccc2c(c1)B(O)OC2 [Compound 17] | 108 to 110 | 83.5 | 51.5 | 121 | 115 |  |  |  |
| OB1OCc2ccc(NCc3ccc4c(c3)OCO4)cc21 [Compound 14] | 136 to 138 | 88.9 | 69 | 88.5 | 102 |  |  |  |
| O=C(NCCCl)N(Cc1ccccc1)c1ccc2c(c1)B(O)OC2 [Compound 27] | 138 to 140 | 104 | 61.8 | 135 | 101 |  |  |  |
| CCCCN(CCCC)c1ccc(CNc2ccc3c(c2)B(O)OC3)cc1 [Compound 12] | 94 to 96 | 89.1 | 58.2 | 106 | 103 |  |  |  |
| COc1ccc(CN(C(=O)Nc2ccccc2)c2ccc3c(c2)B(O)OC3)cc1 [Compound 24] | 104 to 106 | 22.4 | 17.5 | 63 | 53.9 | showed activity | 5.57 | 4.92 |
| COc1ccc(CN(N=O)c2ccc3c(c2)B(O)OC3)cc1 [Compound 18, 6-N-nitroso-N-(p-methoxybenzyl)amino-benzoboroxole] | 109 to 111 | 83 | 61 | 119 | 123 |  |  |  |
| COc1ccc(CN(C(=O)NCCCl)c2ccc3c(c2)B(O)OC3)cc1 [Compound 28] | 134 to 136 | 74.9 | 60.4 | 95.8 | 63.2 |  |  |  |
| O=NN(Cc1ccc(Cl)c(Cl)c1)c1ccc2c(c1)B(O)OC2 [Compound 22] | 144 to 147 | 84.8 | 59.9 | 122 | 146 |  |  |  |
| O=NN(Cc1ccc(F)cc1)c1ccc2c(c1)B(O)OC2 [Compound 19] | 121 to 123 | 77.7 | 62.8 | 128 | 108 |  |  |  |
| O=NN(Cc1ccc(Cl)cc1Cl)c1ccc2c(c1)B(O)OC2 [Compound 21] | 121 to 123 | 95.7 | 69.5 | 134 | 106 |  |  |  |
| O=C(Nc1ccccc1)N(Cc1ccccc1)c1ccc2c(c1)B(O)OC2 [Compound 23] | 116 to 118 | 49.6 | 30 | 116 | 47 |  |  |  |
| OB1OCc2ccc(NCc3ccc(N4CCCCC4)cc3)cc21 [Compound 13] | 65 to 67 | 92 | 49.5 | 93.9 | 90.7 |  |  |  |
| OB1OCc2ccc(NCc3ccccc3)cc21 [Compound 2] | 123 to 125 | 76.6 | 34.5 | 73.7 | 80.2 |  |  |  |
| CN(C)c1ccc(CNc2ccc3c(c2)B(O)OC3)cc1 [Compound 11] | 122 to 124 | 72.1 | 78.4 | 97.6 | 71.1 |  |  |  |
| O=C(Nc1ccc([N+](=O)[O-])c(C(F)(F)F)c1)c1ccc(CNc2ccc3c(c2)B(O)OC3)cc1 [Compound 15] | 117 to 119 |  |  |  |  |  |  |  |
| Cc1ccc(CNc2ccc3c(c2)B(O)OC3)cc1 [Compound 9] | 148 to 150 | 57.2 | 45.9 | 84.1 | 82.8 |  |  |  |
| OB1OCc2ccc(NCc3ccc(F)cc3F)cc21 [Compound 4] | 136 to 138 | 90.9 | 63.9 | 80.2 | 90 |  |  |  |
| O=C(O)c1ccc(CNc2ccc3c(c2)B(O)OC3)cc1 [Compound 7] | 221 to 223 | 71.3 | 80.6 | 100 | 124 |  |  |  |
| O=NN(Cc1ccc(F)cc1F)c1ccc2c(c1)B(O)OC2 [Compound 20] | 125 to 127 | 70.3 | 70.5 | 122 | 126 |  |  |  |
| COc1ccc(CN(C(=O)NC2CCCCC2)c2ccc3c(c2)B(O)OC3)cc1 [Compound 26] | 156 to 158 | 45.5 | 25.1 | 96.3 | 60.8 |  |  |  |
| OB1OCc2ccc(NCc3ccc(Cl)cc3Cl)cc21 [Compound 5] | 106 to 108 | 86.4 | 65.8 | 75.2 | 75.7 |  |  |  |
| OB1OCc2ccc(NCc3cc4ccccc4nc3Cl)cc21 [Compound 16] | 209 to 211 | 28.2 | 28.6 | 44.3 | 44.8 | showed activity | 5.08 | 4.94 |
| OB1OCc2ccc(NCc3ccc(F)cc3)cc21 [Compound 3] | 135 to 137 | 87.2 | 73.6 | 84 | 91.7 |  |  |  |
| N#Cc1ccc(CNc2ccc3c(c2)B(O)OC3)cc1 [Compound 8] | 141 to 143 | 80.8 | 47 | 77.7 | 109 |  |  |  |
| COc1ccc(CNc2ccc3c(c2)B(O)OC3)cc1 [Compound 10, 6-N-(p-methoxybenzyl)aminobenzoboroxole] | 122 to 124 | 51.8 | 37.9 | 90.2 | 90 |  |  |  |
